# Test results from paper PMC8318231, “Rate-of-Kill (RoK) assays to triage large compound sets for Chagas disease drug discovery: Application to GSK Chagas Box” (PLoS Neglected Tropical Diseases, 2021).
# Experiments:
# [1] = tested on: T. cruzi Tulahuen trypomastigotes; assay: T. cruzi trypomastigote assay (Cell Titer-Glo viability, ATP luminescence); type: cell-based, Trypanosoma cruzi; settings: for Trypomastigotes pIC50 48 hours: 48 hours incubation; for Trypomastigotes pIC50 48 hours / Trypomastigotes pIC50 72 hours: pIC50 = -log10 IC50 in molar units; for Trypomastigotes pIC50 72 hours: 72 hours incubation; for 72 pIC50: 72 h
# In short: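 Tulahuen trypomastigotes from infected LLC-MK2 culture supernatants (days 5–8) plated at 5 × 10^4 per well in DMEM/2% FBS with compound at 5 μM single-shot final or in dose response. Viability by CellTiter-Glo ATP luminescence after 10 min at room temperature, normalised to no-cell (100%) and DMSO (0%) controls.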
# [2] = tested on: T. cruzi intracellular amastigotes in H9c2 cells; assay: Rate-of-Kill (RoK) high-content imaging assay, amastigotes per cell (AM/CELL) and curve descriptors; type: cell-based, Trypanosoma cruzi; parameters: key to ME_24h / ME_48h / ME_72h: % reduction in parasite burden (cidal response); t50pct_MCC50 / t50pct_Cmax: unit not given here; settings: for ME_24h: 24h; for ME_48h: 48h; for ME_72h: 72h; for t50%_Cmax / tlag_Cmax / t50pct_Cmax: at Cmax; for ME_24h (%): maximum effect at 24 h; for ME_24h (%) / ME_48h (%) / ME_72h (%): RoK assay; for ME_48h (%): maximum effect at 48 h; for ME_72h (%): maximum effect at 72 h; for ME 24h (maximum effect at 24 hours, intracellular amastigotes): maximum percentage of parasite burden reduction reached by any concentration
# In short: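 H9c2 cardiomyocytes infected with T. cruzi trypomastigotes (MOI 8, 18 h), then compounds tested at 5 μM single shot or 11-point 1/3 dilution from 50 μM. DRAQ5-stained nuclei imaged over a time course. Amastigotes per cell normalised to infected cells at 4 h (0%) and non-infected cells (100%).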
Compound,Trypomastigotes pIC50 48 hours [1],Trypomastigotes pIC50 72 hours [1],ME_24h ([2]; figure 5),ME_48h ([2]; figure 5),ME_72h ([2]; figure 5),MCC50 ([2]; RoK curve descriptor),MCCE ([2]; RoK curve descriptor),"AM/CELL NORM ([2]; Time 4, sheet figure 4 A)","AM/CELL NORM ([2]; Time 24, sheet figure 4 A)","AM/CELL NORM ([2]; Time 48, sheet figure 4 A)",tlag_Cmax [2],t50pct_Cmax ([2]; figure 5),tlag_Cmax ([2]; figure 5),"t50pct_MCC50 ([2]; at MCC50, figure 5)","tlag_MCC50 ([2]; at MCC50, figure 5)",MCCE ([2]; figure 5),ME_24h (%) [2],ME_48h (%) [2],ME_72h (%) [2],"ME 24h (maximum effect at 24 hours, intracellular amastigotes) [2]",other results
COc1ccc(S(=O)(=O)Nc2ccccc2OC)cc1NC(=O)CCCc1c[nH]c2ccccc12 [TCMDC-143256],5,4.9,-69.6887,10.9628,75.3535,5.6 µM,1.9 µM,3.221,-34.0663,12.7734,24.0 h,72,24,72,24,1.852,-69.7%,11.0%,75.4%,-34.0663%,"AM/CELL NORM ([2]; Time 72, sheet figure 4 A): 63.1728; t50%_Cmax [2]: 72.0 h; t50%_MCC50 ([2]; at MCC50): 72.0 h; tlag_MCC50 ([2]; at MCC50): 24.0 h; MCC50 ([2]; figure 5, in µM): 5.556"
Cl.O=c1cc(NCCCNC2CCOc3c(I)cc(Cl)cc32)[nH]c2ccccc12 (centres unmarked) [TCMDC-139489],5.8,6,37.6706,64.7005,58.8587,5.6 µM,0.2 µM,–,–,–,4.0 h,48,4,72,4,0.2058,37.7%,64.7%,58.9%,37.6706%,"ME (maximum effect) in RoK assay (in words) [2]: high ME at 24 hours and 72 hours; tlag (in words) [2]: short tlag times; AM/CELL NORM ([2]; Time 4, figure 4 A): 5.191; AM/CELL NORM ([2]; Time 24, figure 4 A): 37.6706; AM/CELL NORM ([2]; Time 48, figure 4 A): 64.7005; AM/CELL NORM ([2]; Time 72, figure 4 A): 58.8587; t50%_Cmax [2]: 48.0 h; t50%_MCC50 ([2]; at MCC50): 72.0 h; tlag_MCC50 ([2]; at MCC50): 4.0 h; MCC50 ([2]; figure 5, in µM): 5.556"
COc1ccc2c(Cl)c(C(=O)N3CCC3)sc2c1Cl [TCMDC-143262],6.2,6.4,-33.6637,-143.465,-114.282,–,16.7 µM,16.6129,-33.6637,-143.465,48.0 h,72,48,72,72,16.6667,-33.7%,-143.5%,-114.3%,-33.6637%,"AM/CELL NORM ([2]; Time 72, sheet figure 4 A): -114.282; MCC50 ([2]; figure 5): 50 µM"
O=C(NCCc1cccnc1)c1ccc(-c2ccccc2F)o1 [TCMDC-143190],< 4.3,< 4.3,-188.225,-99.3488,47.7023,5.6 µM,0.2 µM,10.7478,-116.413,-106.707,24.0 h,72,24,72,48,0.2058,-188.2%,-99.4%,47.7%,-116.413%,"72 pIC50 (trypomastigotes, raw data of Fig 1D) ([1]; 72 hours, plotted values, censored values given without sign): < 4.3; 48 pIC50 ([1]; trypomastigote assay, 48 h, figure 1A): < 4.3; 72 pIC50 ([1]; trypomastigote assay, figure 1A): < 4.3; 72 pIC50 ([1]; trypomastigote assay, figure 1B): < 4.3; AM/CELL NORM ([2]; Time 72, sheet figure 4 A): 59.1013; t50%_Cmax [2]: 72.0 h; t50%_MCC50 ([2]; at MCC50): 72.0 h; tlag_MCC50 ([2]; at MCC50): 24.0 h; MCC50 ([2]; figure 5, in µM): 27.7778"
CCC(=O)Nc1ccc(C(=O)Nc2ccccc2-c2ccccc2)cc1 [TCMDC-143286],5.9,6,59.883,81.1358,89.3246,1.9 µM,0.6 µM,27.4861,59.883,81.1358,4.0 h,24,4,48,4,0.6173,59.9%,81.1%,89.3%,59.883%,"AM/CELL NORM ([2]; Time 72, sheet figure 4 A): 89.3246; t50%_Cmax [2]: 24.0 h; t50%_MCC50 ([2]; at MCC50): 48.0 h; tlag_MCC50 ([2]; at MCC50): 4.0 h; MCC50 ([2]; figure 5, in µM): 1.852"
COc1ccc(NS(=O)(=O)c2cc(NC(=O)Cc3ccc(C)cc3)ccc2N2CCOCC2)cc1 [TCMDC-143313],5.9,6.3,-207.804,-855.253,-1487.77,–,0.2 µM,–,–,–,72.0 h,72,72,72,72,0.2058,-207.8%,-855.3%,-1487.8%,23.7828%,"AM/CELL NORM ([2]; Time 4, figure 4 A): -12.1404; AM/CELL NORM ([2]; Time 24, figure 4 A): -266.8; AM/CELL NORM ([2]; Time 48, figure 4 A): -1156.6; AM/CELL NORM ([2]; Time 72, figure 4 A): -1899.09; MCC50 ([2]; figure 5): 50 µM"
FC(F)(F)c1cc(C2CCCN(Cc3c[nH]c4ccccc34)C2)nc2ncnn12.O=C(O)C(O)C(O)C(=O)O (centres unmarked) [TCMDC-143311],4.9,5.2,20.357,59.0796,83.5796,50.0 µM,16.7 µM,-4.224,20.357,59.0796,4.0 h,48,4,48,4,16.6667,20.4%,59.1%,83.6%,20.357%,"AM/CELL NORM ([2]; Time 72, sheet figure 4 A): 83.5796; t50%_Cmax [2]: 48.0 h; t50%_MCC50 ([2]; at MCC50): 48.0 h; tlag_MCC50 ([2]; at MCC50): 4.0 h; MCC50 ([2]; figure 5): 50 µM"
